# Measurements: PubChem BioAssay AID179 (DTP/NCI, 2004)
# Activity calls are given as the source filed them.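 How the source made its calls: active means compounds giving half or more protection of infected cells from virus-caused growth loss, again on retest; inactive means the rest.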
# Tested on: CEM cells HIV-1 protection, formazan growth assay
# Test: NCI AIDS Antiviral Assay
# Settings: for IC50: measured here: growth of uninfected CEM cells
# How it was run: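 Human CEM cells, uninfected and HIV-1-infected, exposed to five drug concentrations; growth measured by soluble formazan assay and scored as percent protection from infection, with protecting compounds retested.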
Compound,EC50 [µM],IC50 [µM],outcome
CCOC(=O)c1c2ccc(/C=C/c3ccccn3)ccc-2c(C(=O)OCC)c1N,> 6.76,> 6.76,–
Cc1ccc2c(c1)[nH]c(=S)n2/C=C(\c1ccccc1)S(=O)Cc1ccccc1 (stereo not given),> 200,> 200,–
CCCOc1cnc([C@H]2CCC3[C@@H]4CC=C5C[C@@H](OC(C)=O)CC[C@]5(C)C4CC[C@@]32C)s1 (stereo not given in full),> 55,> 55,–
CC(C)=CC[P+](c1ccccc1)(c1ccccc1)c1ccccc1,> 200,2.09,–
CCOC(=O)C(=[N+]=[N-])C(=O)CSC#N,> 200,10.5,–
OCCN(CCO)c1nc(N(CCO)CCO)nc(N(CCO)CCO)n1,> 200,> 200,–
CN(C(=O)C12C3C4C1C1C2C3C41I)C(C)(C)C (stereo not given),> 251,> 251,–
CC1(C)OC2C(=O)OC(COCc3ccccc3)C2O1 (stereo not given),> 36.3,> 36.3,–
O=C1CCCCC(=O)Nc2ccccc2-c2ccccc2N1,–,–,inactive
COc1ccc(Oc2nc3c(N)cc(C(F)(F)F)cc3nc2-c2ccccc2)cc1,> 100,34.7,–
CS[C@]12[C@@H]3C(=O)N(C)C(=O)[C@@H]3[C@](C)(C(=O)N1C)C(=O)N2c1ccccc1,> 200,> 200,–
CN(CCC#N)c1ccc(/C=C(\C#N)c2cccc(C(F)(F)F)c2)cc1,> 200,3.63,–
O=S(=O)([O-])[O-].[OH3+].[OH3+].[OH3+].[Ru+2].c1ccccc1,> 79.4,> 79.4,–
N=c1c2ccccc2c2ccccc2n1O,> 200,> 100,–
CC(=O)C(O)N1C(=O)C=CC1=O (stereo not given),> 50.1,1.86,–
C/C(=N/NC(=S)Nc1ccc(Cl)cc1)c1cccc(/C(C)=N\NC(=S)Nc2ccc(Cl)cc2)n1,> 200,6.76,–
COc1ccc(N2C(=O)C3c4[nH]c5ccccc5c4C4CCC(C(C)(C)C)CC4C3C2=O)c(C)c1 (stereo not given),> 200,> 200,–
CC(=O)NNc1nc(C)c(C(=O)NNC(=O)C(=O)Nc2ccccc2C#N)s1,> 89.1,51.3,–

Compound,EC50 [µM],IC50 [µM],outcome
COC1=NC2=NCCN2C(OC)=N1,> 200,> 200,–
O=c1cc[nH]c2c1ccc1[nH]ccc(=O)c12,> 200,> 200,–
Cc1ccc(Nc2nc(C)c(C(=O)C/C(=N/NC(N)=S)C(=O)Nc3cc(Cl)cc(Cl)c3)s2)cc1,> 200,178,–
Cc1c[nH]c(C(=O)O)c1-c1ccc2c(-c3ccccc3)nc3ccccc3n12,> 200,33.1,–
CC1(CCC(=O)c2ccc3c(c2)OCO3)OCCO1,> 97.7,> 97.7,–
CN1CCC2(CC1)C(=NC1CCCCC1)NC(=S)N2c1ccccc1,> 100,> 100,–
Cc1cc(Cl)ccc1NC(=O)C(=O)C(C(=O)c1ccc2ccccc2c1)C1OC(=O)c2ccccc21 (stereo not given),> 52.5,25.1,–
Cc1cc(=O)[nH]c(NNC(C#N)c2ccc([N+](=O)[O-])cc2)n1 (stereo not given),> 63.1,> 63.1,–
CN(C)CCc1ccnc2nc(-c3ccc4ccccc4c3)cn12,> 200,32.4,–
NNC(=O)CCCCCCCC(=O)O,> 200,> 200,–
COC1OC2=CCC3C(=O)NC(=O)C3C2[C@H](OCc2ccccc2)C1OCc1ccccc1 (stereo not given in full),–,–,inactive
Clc1ccccc1C1N2CCCCC2[C@@H]2c3[nH]c4ccccc4c3CCN12 (stereo not given in full),> 50.1,> 50.1,–
O=C1CC2CC(CC3(CO3)C2)C1F (stereo not given),> 200,> 200,–
CN(C)CCNC(=O)c1cccc2c(NCCN(C)C)c3ccccc3nc12,> 20,2.09,–
C/C(O)=C(\C=N\C(N)=S)C(=O)Nc1ccccc1,> 200,> 200,–
Cc1nn[n-]n1.N.N.N.N.N.[Cl-].[Co+3],> 832,> 832,–
CCOC(=O)C1C(C(=O)OCC)N2c3ccccc3-c3cccnc3[C@@H]2[C@H]1C(=O)OCC (stereo not given in full),> 100,95.5,–
Oc1ccccc1C=Nc1ccccc1N=Cc1ccccc1O,> 4.57,> 4.57,–
